Laboratory results published in patent US10766883B2, “Aminopyrazoles as janus kinase inhibitors” (Merck Sharp & Dohme Corp., priority 2016, dated 2020).
Read-outs that look alike come from different tables or passages of the source.

Columns and labels:
JAK3 = JAK3 (Homo sapiens (Human), UniProt P52333); assay: JAK biochemical HTRF enzyme assay, JAK3; conditions: reference compound, mean +/- spread across assay runs
Experimental: (§1) The ability of compounds to inhibit the activity of JAK1, JAK2, JAK3, and Tyk2 was measured using a recombinant purified GST-tagged catalytic domain for each enzyme (InVitrogen/Life Technologies/ThermoFisher Scientific Inc., Waltham, Mass., USA; catalogue numbers: M4290(JAK1), M4290(JAK2), M4290(JAK3), M4290(Tyk2)) in an HTRF format biochemical assay. The reactions employed a common peptide substrate, LCB-[…]-NH2 (Merck Sharp & Dohme, Kenilworth, N.J., USA).
(§2) The basic assay protocol is as follows: First, 250 nL of diluted compounds in DMSO were dispensed into the wells of a dry 384-well Black plate (GreinerFluotrac™ catalog number: 781076; Greiner Bio-One GmbH, Frickenhausen, Germany) using a Labcyte Echo® 555 acoustic dispenser (Clarcyte, Inc, Sunnyvale, Calif., USA). Subsequent reagent additions employed an Agilent™ Bravo™ liquid handling system (Aligent Technologies, Santa Clara, Calif., USA). […] After equilibration, 2 μL of 10×ATP in 1× assay buffer was added to initiate the kinase reaction and the plates were shaken and then incubated at ambient temperature for 120 minutes. […] HTRF signal=10,000*665 nm reading/615 nm reading. After normalization to untreated controls, the percent inhibition of the HTRF signal at each compound concentration was calculated. […]

JAK1 = JAK1 (Homo sapiens (Human), UniProt P23458); assay: JAK biochemical HTRF enzyme assay, JAK1
Chain of JAK1 (P23458 875-1153): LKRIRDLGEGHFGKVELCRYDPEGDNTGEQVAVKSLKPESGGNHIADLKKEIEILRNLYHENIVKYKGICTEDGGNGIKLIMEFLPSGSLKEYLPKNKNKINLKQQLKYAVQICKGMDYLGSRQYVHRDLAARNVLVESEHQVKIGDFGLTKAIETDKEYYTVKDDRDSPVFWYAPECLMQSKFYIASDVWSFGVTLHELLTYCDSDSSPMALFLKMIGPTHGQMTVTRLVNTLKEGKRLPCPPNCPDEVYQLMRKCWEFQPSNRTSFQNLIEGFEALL
Experimental: (§3) The ability of compounds to inhibit the activity of JAK1, JAK2, JAK3, and Tyk2 was measured using a recombinant purified GST-tagged catalytic domain for each enzyme (InVitrogen/Life Technologies/ThermoFisher Scientific Inc., Waltham, Mass., USA; catalogue numbers: M4290(JAK1), M4290(JAK2), M4290(JAK3), M4290(Tyk2)) in an HTRF format biochemical assay.
(§4) Subsequent reagent additions employed an Agilent™ Bravo™ liquid handling system (Aligent Technologies, Santa Clara, Calif., USA). […] After equilibration, 2 μL of 10×ATP in 1× assay buffer was added to initiate the kinase reaction and the plates were shaken and then incubated at ambient temperature for 120 minutes. […] After normalization to untreated controls, the percent inhibition of the HTRF signal at each compound concentration was calculated. The plot of percent inhibition versus the log of compound concentration was fit with a 4-parameter dose response equation to calculate IC50 values.

[1] = test system: Interleukin 4 (IL4)—JAK1/JAK3—STAT6 Pathway; assay: IL4 CellSensor beta-lactamase reporter assay (STAT6-bla RA-1 cells); assay type: cell-based; conditions: reference compound, mean +/- spread across assay runs
Source text: (§5) Inhibition of the activity of JAK kinases (JAK1, JAK2, JAK3 and TYK2) in intact cells was quantified in antagonist mode using CellSensor® transcriptional reporter technology (Life Technologies/ThermoFisher Scientific Inc., Waltham, Mass., USA; https://www.thermofisher.com/us/en/home/industrial/pharma-biopharma drug-discovery-development/target-and-lead-identification-and-validation/pathway-biology/cellular-pathway-analysis/cellsensor-cell-lines.html), in three independent cell lines engineered to detect IL4, IL6 and EPO signaling. In brief, CellSensor® cell lines (see details below for each assay) carrying a stably integrated β-Lactamase reporter gene under control of specific cis-regulatory STAT elements responsive to the pathway being monitored were pre-treated with test compounds serially diluted in DMSO (see preparation and dosing of compounds and agonist cytokines section). Following incubation with compounds, IL4, IL6, or EPO were added to each cognate cell line at a concentration equal to a dose necessary to achieve 80% of the maximal response (EC80).
(§6) Incubation with compounds, cytokines and LiveBLAzer™ were carried out at 37° C. in a tissue culture incubator maintained at 90% humidity and 5% CO2.
Interleukin 4 (IL4)—JAK1/JAK3—STAT6 Pathway […]

Tyk2 = Tyk2 (Homo sapiens (Human), UniProt P29597); assay: JAK biochemical HTRF enzyme assay, Tyk2; conditions: reference compound, mean +/- spread across assay runs
Chain of Tyk2 (P29597 897-1176): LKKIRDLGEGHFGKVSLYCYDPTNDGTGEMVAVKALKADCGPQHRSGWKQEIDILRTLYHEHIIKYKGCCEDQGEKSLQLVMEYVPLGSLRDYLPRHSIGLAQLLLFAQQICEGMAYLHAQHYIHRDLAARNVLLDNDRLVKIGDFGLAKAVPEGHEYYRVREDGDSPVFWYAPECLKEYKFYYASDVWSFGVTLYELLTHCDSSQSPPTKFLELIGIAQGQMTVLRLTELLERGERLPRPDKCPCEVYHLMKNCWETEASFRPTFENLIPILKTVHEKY
Experimental: as §1, §2

EPO/Jak2/Stat5 pathway = assay: EPO CellSensor beta-lactamase reporter assay (irf1-bla TF-1 cells); assay type: cell-based, human; conditions: for IC50: Homo sapiens; for EPO/IL-6: ratio EPO IP / IL-6 IP
Source text: as §5, with “section).” for “section). Following incubation with compounds, IL4, IL6, or EPO were added to each cognate cell line at a concentration equal to a dose necessary to achieve 80% of the maximal response (EC80).”
as §6
Erythropoietin (EPO)—JAK2—STAT5 Pathway
CellSensor irf1-bla TF-1 cells carry a stably integrated β-Lactamase reporter gene under control of the STAT5 Response Elements present in the Interferon Regulatory Factor I (IRF1) gene promoter.
(§7) Each CellSensor® cell line was subsequently plated as per supplier's instructions (30,000 cells in 32 μL/well) and mixed with the compound. Following a 60 minute incubation, cells were subsequently stimulated by addition of 8 μL of cognate cytokine (EC80 dose of IL4, IL6 and EPO) and incubated for an additional 3 hours, before adding LiveBLAzer™-FRET B/G substrate.
(§8) The IL-6 assay identifies agents that inhibit the beta-lactamase reporter activity initiated through stimulation of the IL-6R/JAK1/2/Stat3 pathway with recombinant human IL-6. The EPO assay identifies agents that inhibit the beta-lactamase reporter activity initiated through stimulation of the EPO/Jak2/Stat5 pathway with human EPO. Inhibition of EPO signaling leads to an inability to recover from anemia of chronic disease. […] That is, it is desirable for the EPO/IL-6 IC50 ratios to be a relatively large number.

[2] = test system: IL-6R/JAK1/2/Stat3 pathway; assay: IL6 CellSensor beta-lactamase reporter assay (SIE-bla ME-180 cells); assay type: cell-based; conditions: Homo sapiens
Source text: as §5, with “section).” for “section). Following incubation with compounds, IL4, IL6, or EPO were added to each cognate cell line at a concentration equal to a dose necessary to achieve 80% of the maximal response (EC80).”
as §6
Interleukin 6 (IL6)—JAK1/JAK2—STAT4 Pathway
CellSensor™ SIE-bla ME-180 cells carrying a stably integrated β-Lactamase reporter gene under control of the Sis-Inducible Element (SIE).
as §7, §8

JAK2 = JAK2 (Homo sapiens (Human), UniProt O60674); assay: JAK biochemical HTRF enzyme assay, JAK2; conditions: for JAK2/1: ratio JAK2 IC50 / JAK1 IC50
Chain of JAK2 (O60674 849-1124): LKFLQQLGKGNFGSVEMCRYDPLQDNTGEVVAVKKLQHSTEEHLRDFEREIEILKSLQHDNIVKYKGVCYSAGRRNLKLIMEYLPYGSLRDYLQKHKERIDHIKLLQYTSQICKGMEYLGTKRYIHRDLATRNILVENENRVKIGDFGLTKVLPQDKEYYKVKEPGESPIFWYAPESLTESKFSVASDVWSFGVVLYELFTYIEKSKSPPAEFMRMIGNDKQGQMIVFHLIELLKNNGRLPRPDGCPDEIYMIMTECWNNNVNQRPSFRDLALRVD
Experimental: as §3, §4

[3] = reference compound, mean +/- spread across assay runs
[4] = irf1-bla TF-1 cells, EPO at EC80, read-out: EPO IP
[5] = SIE-bla ME-180 cells, IL6 at EC80, read-out: IL-6 IP
[6] = HTRF, GST-tagged catalytic domain, ATP 8.5 μM
[7] = HTRF, GST-tagged catalytic domain, ATP 31.8 μM

Chain of JAK3 (P52333 822-1111): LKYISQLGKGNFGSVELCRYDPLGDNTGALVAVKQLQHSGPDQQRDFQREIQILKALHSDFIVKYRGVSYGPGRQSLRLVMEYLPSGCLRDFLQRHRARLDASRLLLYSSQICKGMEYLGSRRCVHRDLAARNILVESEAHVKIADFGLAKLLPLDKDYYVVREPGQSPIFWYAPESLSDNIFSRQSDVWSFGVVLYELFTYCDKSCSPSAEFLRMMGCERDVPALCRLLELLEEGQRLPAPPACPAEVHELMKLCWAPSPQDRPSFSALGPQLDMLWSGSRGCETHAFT

Compound | IC50 (EPO/Jak2/Stat5 pathway; [4]) [nM] | EPO/IL-6 (EPO/Jak2/Stat5 pathway) | IC50 [2, 5] [nM] | IC50 (JAK2; [6]) [nM] | JAK2/1 (JAK2) | IC50 (JAK1; [7]) [nM] | other results
CN(C)[C@H]1CC[C@H](n2cc(C(N)=O)c(Nc3ccc(Cl)cc3)n2)[C@@H](C#N)C1 (single isomer, unassigned) [Reference Compound No. 1, 3-[(4-chlorophenyl)amino]-1-[(1S,2S,4S or 1R,2R,4R)-2-cyano-4-(dimethylamino)cyclohexyl]-1H-pyrazole-4-carboxamide] |  |  |  |  |  |  | IC50 (JAK3): 1350 nM; IC50 (JAK1; [3]): 1.47 nM; IC50 [1]: 25.7 nM; IC50 (Tyk2): 14 nM
N#C[C@H]1CCOC[C@@H]1n1cc(C(N)=O)c(Nc2ccc(Cl)cc2)n1 [Comp. Ex-1, reference compound] | 132 | 9 |  |  |  |  | 
N#C[C@H]1CCOC[C@@H]1n1cc(C(N)=O)c(Nc2ccc(Cl)c(Cl)c2)n1 [Comp. Ex-2, reference compound] | 2170 | 31 | 69 |  |  |  | 
N#C[C@H]1CCOC[C@@H]1n1cc(C(N)=O)c(Nc2ccc(OC(F)(F)F)cc2)n1 [Comp. Ex-3, reference compound] | 80 | 6 | 14 |  |  |  | 
N#Cc1ccc(Nc2nn([C@H]3COCC[C@@H]3C#N)cc2C(N)=O)cc1 [Comp. Ex-4, reference compound] | 89 | 6 | 14 |  |  |  | 
COc1cc(Nc2nn([C@H]3COCC[C@@H]3C#N)cc2C(N)=O)ccc1Cl [Ex-1, 3-((4-Chloro-3-methoxyphenyl)amino)-1-((3R,4S)-4-cyanotetrahydro-2H-pyran-3-yl)-1H-pyrazole-4-carboxamide] | 280 | 19 | 15 | 3.88 | 32 | 0.12 | 
CSc1cc(Nc2nn([C@H]3COCC[C@@H]3C#N)cc2C(N)=O)ccc1Cl [Ex-2, 3-((4-chloro-3-(methylthio)phenyl)amino)-1-((3R,4S)-4-cyanotetrahydro-2H-pyran-3-yl)-1H-pyrazole-4-carboxamide] | 649 | 30 | 22 | 5.48 | 22 | 0.25 | 
COc1cc(Nc2nn([C@H]3COCC[C@@H]3C#N)cc2C(N)=O)ccc1C#N [Ex-3, 3-((4-cyano-3-methoxyphenyl)amino)-1-((3R,4S)-4-cyanotetrahydro-2H-pyran-3-yl)-1H-pyrazole-4-carboxamide] | 431 | 23 | 19 | 3.28 | 49 | 0.07 | 
CC(C)c1cc(Nc2nn([C@H]3COCC[C@@H]3C#N)cc2C(N)=O)ccc1C#N [Ex-4, 3-((4-cyano-3-isopropylphenyl)amino)-1-((3R,4S)-4-cyanotetrahydro-2H-pyran-3-yl)-1H-pyrazole-4-carboxamide] | 744 | 16 | 47 | 9.7 | 20 | 0.49 | 
Cc1noc2ccc(Nc3nn([C@H]4COCC[C@@H]4C#N)cc3C(N)=O)cc12 [Ex-5, 1-((3R,4S)-4-cyanotetrahydro-2H-pyran-3-yl)-3-((3-methylbenzo[d]isoxazol-5-yl)amino)-1H-pyrazole-4-carboxamide] | 309 | 18 | 17 | 3.04 | 19 | 0.16 | 
CS(=O)(=O)c1ccc(Nc2nn([C@H]3CCCC[C@@H]3C#N)c3cc[nH]c(=O)c23)cc1 [Reference Compound No. 2, (1S,2S)-2-(3-{[4-(methylsulfonyl)phenyl]amino}-4-oxo-4,5-dihydro-1H-pyrazolo[4,3-c]pyridin-1-yl)cyclohexanecarbonitrile, reference compound] |  |  |  |  |  |  | IC50 (JAK3): 21.9 nM; IC50 (JAK2; [3]): 1 nM; IC50 (JAK1; [3]): 0.17 nM; IC50 ([2]; ME-180, reference compound, mean +/- spread across assay runs, read-out: IL6 CellSensor assay IC50): 21 nM; IC50 (EPO/Jak2/Stat5 pathway; TF-1, reference compound, mean +/- spread across assay runs, read-out: EPO CellSensor assay IC50): 39.5 nM; potency spread across the IL6, EPO and IL4 CellSensor assays (EPO/Jak2/Stat5 pathway; across all three CellSensor assays): two to three; IC50 [1]: 11.1 nM; IC50 (Tyk2): 0.28 nM
